Patent US20160022751A1, “NOVEL COMPOSITION FOR TREATING ALZHEIMER'S DISEASE AND IMPROVING COGNITIVE FUNCTION OF ALZHEIMER'S PATIENTS” (GANGNEUNG-WONJU NATIONAL UNIVERSITY INDUSTRY ACADEMY …, priority 2014, published 2016)

Experiments:
NEP = NEP protein expression in HMO6 cells (western blot, immunocytochemistry); assay type: cell-based, human; conditions: 5 μg/ml Rg3, 24 h (FIG. 19)
Description: (§1) FIG. 19 represents an images showing a result of western blot analysis of the expression of NEP (neprilysin) and IDE (insulin-degrading enzyme) in HMO6 cells (A); graphs representing the above result quantitatively (B and C), and fluorescence microscopic images representing immunocytochemical analyses (D and E). The expression of NEP and IDE in HMO6 cells was analyzed by western blot analysis and immunocytochemistry after treating Aβ42 (5 μM) or Rg3 (2.5 or 5 μg/ml) for 24 h to HMO6 cells in serum-free DMEM medium plated on 60 mm cell culture plates or chamber slides. The results are shown as mean±SD. * P<0.05, ** P<0.01, *** P<0.001.
(§2) HMO6 cells were lysed in 1% RIPA buffer containing protease and phosphatase inhibitors (Roche, Mannheim, Germany) and whole-cell lysates were separated on 10% sodium dodecyl sulfate-polyacrylamide gel electrophoresis. After electrophoresis, the proteins were transferred to polyvinylidene fluoride membranes, and the membranes were blocked with 5% skim milk in Tris-buffered saline solution containing 0.1% Tween-20. The membranes were then immunoblotted with primary antibodies, anti-phospho-p38, anti-p38, anti-phospho-ERK, anti-ERK, and anti-f3-actin (Santa Cruz Biotechnology, USA), followed by incubation with horseradish peroxidase-conjugated anti-rabbit or anti-mouse secondary antibodies (Stressgen, USA). […]

SRA [1] = test: In vivo SRA mRNA expression in brain tissues (RT-PCR); conditions: mice administrated with Rg3 (FIG. 24A)
Description: Total RNA extracts from HMO6 cells or perfused brain tissue were prepared using the Trizol method (Invitrogen). cDNA was synthesized from RNA by reverse transcription of 1 μg total RNA using the Improm-II reverse transcription system (Promega, Wis., USA) and oligo dT primers in a total volume of 20 μl. PCR amplification was performed using the primers listed in Table 1 (Bioneer, Korea). qPCR reactions were run on a Rotor-Gene 6000 (Corbett Research, Sydney, Australia) using a SensiMix™ SYBR Hi-ROX Kit (Bioline, UK) in 20 μl reaction mixtures. Each real-time-PCR master mix contained 10 μl 2× enzyme master mix, 7 μl RNase free water, 1 μl of each primer (10 pM each), and 1 μl diluted template. The PCR was performed with an initial pre-incubation step for 15 min at 95° C., followed by 45 cycles of 95° C. for 15 s, annealing at 52° C. for 15 s, and extension at 72° C. for 10 s. […] Relative sample expression levels were calculated using Rotor-Gene 6000 Series Software 1.7 and were expressed relative to β-actin for mice or glyceraldehyde 3-phosphate dehydrogenase for HMO6 cells and corrected for between-run variability. Data for the experimental samples are expressed as a percentage of the internal control gene. […]

p38 = p38 phosphorylation in HMO6 cells (western blot); assay type: cell-based, human; conditions: Rg3 5 μg/ml, western blot (FIG. 18)
Description: FIG. 18 is a photograph showing a result of western blot analysis for confirming the degree of phosphorylation of ERK (extracellular-regulated kinase) and p38, according to an embodiment of the present invention. Depending on the presence of Rg3, the levels of phospho-ERK and phospho-p38 protein were investigated by immune-blotting. HMO6 cells were treated with Rg3 (5 μg/ml) after plated on 60 mm cell culture plates and western blot analysis was performed after the cells were placed in phenol red negative/sere-free DMEM medium for 1 h. The western blot analysis was carried out three times independently.
(§3) HMO6 cells were lysed in 1% RIPA buffer containing protease and phosphatase inhibitors (Roche, Mannheim, Germany) and whole-cell lysates were separated on 10% sodium dodecyl sulfate-polyacrylamide gel electrophoresis. After electrophoresis, the proteins were transferred to polyvinylidene fluoride membranes, and the membranes were blocked with 5% skim milk in Tris-buffered saline solution containing 0.1% Tween-20. The membranes were then immunoblotted with primary antibodies, anti-phospho-p38, anti-p38, anti-phospho-ERK, anti-ERK, and anti-f3-actin (Santa Cruz Biotechnology, USA), followed by incubation with horseradish peroxidase-conjugated anti-rabbit or anti-mouse secondary antibodies (Stressgen, USA). Blots were developed using an enhanced chemiluminescent solution (Thermo, USA).

clathrin = test: Clathrin immunocytochemistry in HMO6 cells; assay type: cell-based, human; conditions: Rg3 5 μg/ml, 24 h, immunocytochemistry (FIG. 20)
Description: FIG. 20 is a fluorescence microscopic image showing a result of immunocytochemical analysis investigating the expression of caveolin and clathrin in HMO6 cells treated with or without Rg3. HMO6 cells were treated with Rg3 (5 μg/ml) for 24 h after plated on chamber slides and then the cells were stained with primary antibodies binding specifically to caveolin and clathrin, respectively and counterstained with DAPI. The length of scale bar represents 10 μm.
The present inventors investigated whether ginsenosides can induce the expression of SRA, clathrin, caveolin 1, NEP or IDE and the differentiation of neurons actually through immunocytochemical analysis (ICC) and microscopic observations. Specifically, Cultured HMO6 cells were fixed in 4% paraformaldehyde (in 1×PBS) for 15 min, washed twice with 1×PBS supplemented with 100 mM glycine for 5 min, and incubated with permeabilization buffer consisting of 0.1% Triton X-100 (Sigma-Aldrich, USA) in 1×PBS for 30 min at room temperature. Blocking was performed with 1% bovine serum albumin (BSA, Sigma-Aldrich, USA) for 30 min at room temperature. Then, SRA, clathrin, caveolin1, NEP, or IDE mouse monoclonal antibody (1:200; Santa Cruz Biotechnology, USA) was added to 1% BSA in PBS with Tween 20 (PBST) and incubated for 2 h at room temperature. […]

SRA [2] = test: In vivo SRA protein expression in brain tissues (western blot); conditions: mice administrated with Rg3 (FIG. 24B)
Text: as §3
The present inventor investigated whether ginsenoside Rg3 translocated to brain tissues contributes to the uptake and degradation of Aβ42 in order to determine whether in vitro experimental results described in the Example 5 can be applied to in vivo condition in the same manner. Specifically, the expression level of SRA and SRB gene within brain tissues of mice administrated with Rg3 was determined using the RT-PCR analysis described in the Example 5-4 (FIG. 24A) and the western blot analysis described in the Example 5-6 (FIG. 24B). […]

IDE = IDE protein expression in HMO6 cells (western blot, immunocytochemistry); assay type: cell-based, human; conditions: 5 μg/ml Rg3, 24 h (FIG. 19)
Description: as §1, §2

## CC(C)=CCC[C@](C)(O)[C@H]1CC[C@]2(C)[C@@H]1[C@H](O)C[C@@H]1[C@@]3(C)CC[C@H](O[C@@H]4O[C@H](CO)[C@@H](O)[C@H](O)[C@H]4O[C@@H]4O[C@H](CO)[C@@H](O)[C@H](O)[C@H]4O)C(C)(C)[C@@H]3CC[C@]12C [ginsenoside Rg3]
NEP
  NEP expression in cells: distinctively expressed
SRA [1]
  expression of SRA mRNA in brain tissues: increased
p38
  phosphorylation of p38: promoted the phosphorylation
clathrin
  clathrin expression: highly expressed
SRA [2]
  expression of SRA protein in brain tissues: increased
IDE
  IDE expression in cells: distinctively expressed
